Results as given in patent publication US20230265056A1, “CRYSTALLINE FORMS OF BENZAMIDE COMPOUND AND PROCESS FOR PREPARING THE SAME” (CRYSTAL PHARMATECH CO., LTD., priority 2020, published 2023).
Converted amounts (≈) assume the structure as drawn.

Experiments:
[1] = Hygroscopicity by DVS test, with XRPD before and after; format: physicochemical; conditions: for Water uptake at 25° C., 80% / Water uptake at 25° C., 90%: DVS; for Water uptake at 25° C., 80%: 80% relative humidity; for Water uptake at 25° C., 90%: 90% relative humidity
Protocol: The dynamic vapor sorption diagrams of the present disclosure were collected on Intrinsic-type and Intrinsic Plus-type dynamic vapor sorption instruments of SMS company. The process parameters of the dynamic vapor sorption test of the present disclosure were as follows:
Protection gas and its flow rate: N2, 200 mL/minute
Minimum dm/dt equilibration time: 10 minutes
Maximum Equilibration Time: 180 minutes
Relative humidity range: 0% RH-95% RH-0% RH, 50% RH-95% RH-0% RH
Relative humidity gradient: 10% (0% RH-90% RH-0% RH), 5% (90% RH-95% RH and 95% RH-90% RH).
Weigh approximately 10 mg of a form of formula (I) (i.e., Form A from WO2020234779A1), 10 mg of Form J and 10 mg of amorphous for DVS test, and then collect the obtained solid for XRPD analysis. The DVS plots of Form A, Form J and amorphous were shown in FIGS. 6, 8 and 10, and the XRPD overlay were shown in
Following is Description and definition of hygroscopicity (see appendix XIX J, guidance for hygroscopicity evaluation of Pharmacopoeia of the People's Republic of China 2010): […]

[2] = Kinetic solubility in SGF, FaSSIF, FeSSIF and pure water (HPLC); conditions: for solubility kinetic at 1 h / solubility kinetic at 4 h / solubility kinetic at 24 h: thermodynamic from solid
Protocol: (§1) Suspend Form J (from example 1), amorphous (from example 2) and Form A (from WO2020234779A1) in Simulated Gastric Fluid (SGF), Fasted-State Simulated Intestinal Fluid (FaSSIF), Fed-State Simulated Intestinal Fluid (FeSSIF) and pure water, respectively. After equilibrium for 1 hour, 8 hours and 24 hours, filter the solution for HPLC test.

[3] = Intrinsic dissolution of compressed thin tablet; format: physicochemical; conditions: pH 1.5 aqueous HCl solution
Protocol: Approximately 100 mg of each of Form J (from example 1) and Form A (from WO2020234779A1) were compressed by intrinsic dissolution mold under 10 kN pressure to obtain a thin tablet with surface area of 1.0 cm2, respectively. Dissolution experiment was performed on the tablets, and the corresponding result was summarized in Table 4, dissolution profile was shown in FIG. 16.

[4] = would covert to Form A under certain conditions; cited from earlier work
Crystal habit by PLM = format: physicochemical; conditions: compared with Form A
Protocol: About 10 mg of Form J (from example 1) and Form A (from WO2020234779A1) were weighed and placed onto a glass slide, respectively, the solid were dispersed with several vacuum pump oil, and then covered with a cover glass. The samples were observed using PLM.

physchem = conditions: thermodynamic from solid
Protocol: as §1

PSD test = format: physicochemical; conditions: Isopar G (0.2% lecithin), before and after sonication for 30 s, compared with Form A
Protocol: Approximately 10-30 mg of each of Form J (from example 1) and Form A (from WO2020234779A1) were added into 5 mL Isopar G (0.2% lecithin) to form a suspension, respectively. The suspension was loaded into SDC system for data collection, which was collected before and after sonication for 30 s.

[5] = Solid-state stability (XRPD and HPLC purity); format: physicochemical; conditions: for Purity: HPLC; for Solid form: XRPD
Protocol: Weigh appropriate amount of Form J (from example 1) into a 5-mL glass vial, and then seal the vial with parafilm (pricked 5 pinholes). Place the vial under 25° C./60% RH and 40° C./75% RH for some time, and then separate several solids out for XRPD and HPLC purity test.

[6] = Sticking propensity (powder adhering to punch tip); format: physicochemical; conditions: 6 mm circle punches, 10 kN pressure, compared with Form A
Protocol: Approximately 30 mg of each of Form J (from example 1) and Form A (from WO2020234779A1) were compressed by 6 mm circle punches under 10 kN pressure, respectively. The loading mass (ML) and tablet mass (MT) were recorded, and mass percentage of powder adhering to punch tip (ma) was calculated by the equation of ma=(ML−MT)/ML×100%.

## C=CC(=O)N(C)CCOc1c(N)ncnc1-c1cc(F)cc(NC(=O)c2ccc(C3CC3)cc2F)c1C [Amorphous, N-(3-(6-amino-5-(2-(N-methylacrylamido)ethoxy)pyrimidin-4-yl)-5-fluoro-2-methylphenyl)-4-cyclopropyl-2-fluorobenzamide]
[1]
  Water uptake at 25° C., 80%: 3.37%
  Water uptake at 25° C., 90%: 4.14%
[1]; class per Pharmacopoeia of the People's Republic of China 2010
  Hygroscopicity: Hygroscopic (increase in mass is less than 15 percent and equal to or greater than 2 percent)
[2]; FaSSIF, 24 hr
  Kinetic solubility: 11 µg/mL
[2]; Fasted-State Simulated Intestinal Fluid (FaSSIF), fassif, 1 hr
  solubility kinetic at 1 h: 10 µg/mL (≈ 19.7 µM)
[2]; Fasted-State Simulated Intestinal Fluid (FaSSIF), fassif, 4 hr
  solubility kinetic at 4 h: 11 µg/mL (≈ 21.7 µM)
[2]; Fed-State Simulated Intestinal Fluid (FeSSIF), fessif, 1 hr
  solubility kinetic at 1 h: 33 µg/mL (≈ 65 µM)
[2]; Fed-State Simulated Intestinal Fluid (FeSSIF), fessif, 4 hr
  solubility kinetic at 4 h: 34 µg/mL (≈ 67 µM)
[2]; Fed-State Simulated Intestinal Fluid (FeSSIF), fessif, 24 hr
  solubility kinetic at 24 h: 33 µg/mL (≈ 65 µM)
[2]; SGF, 1 hr
  Kinetic solubility: 1400 µg/mL
[2]; Simulated Gastric Fluid (SGF), simulated gastric fluid, SGF, 4 hr
  solubility kinetic at 4 h: 1000 µg/mL (≈ 1970 µM)
[2]; Simulated Gastric Fluid (SGF), simulated gastric fluid, SGF, 24 hr
  solubility kinetic at 24 h: 950 µg/mL (≈ 1870 µM)
[2]; pure water, water, H2O, 1 hr
  solubility kinetic at 1 h: 4.6 µg/mL (≈ 9.06 µM)
[2]; pure water, water, H2O, 4 hr
  solubility kinetic at 4 h: 4.4 µg/mL (≈ 8.67 µM)
[2]; pure water, water, H2O, 24 hr
  solubility kinetic at 24 h: 4.3 µg/mL (≈ 8.47 µM)

## C=CC(=O)N(C)CCOc1c(N)ncnc1-c1cc(F)cc(NC(=O)c2ccc(C3CC3)cc2F)c1C [Form A, N-(3-(6-amino-5-(2-(N-methylacrylamido)ethoxy)pyrimidin-4-yl)-5-fluoro-2-methylphenyl)-4-cyclopropyl-2-fluorobenzamide, reference compound]
[1]
  Water uptake at 25° C., 80%: 0.54%
  Water uptake at 25° C., 90%: 0.68%
[3]; 5 mins
  Cumulative dissolution amount: 0.5 mg
[3]; 10 mins
  Cumulative dissolution amount: 0.9 mg
[3]; 15 mins
  Cumulative dissolution amount: 1.3 mg
[3]; 20 mins
  Cumulative dissolution amount: 1.6 mg
[3]; 25 mins
  Cumulative dissolution amount: 2.1 mg
[3]; 30 mins
  Cumulative dissolution amount: 2.7 mg
[3]; 60 mins
  Cumulative dissolution amount: 3.2 mg
[3]; 75 mins
  Cumulative dissolution amount: 4.3 mg
[2]; FaSSIF, 1 hr
  Kinetic solubility: 6.1 µg/mL
[2]; FaSSIF, 4 hr
  Kinetic solubility: 6.5 µg/mL
[2]; FaSSIF, 24 hr
  Kinetic solubility: 5 µg/mL
[2]; FeSSIF, 1 hr
  Kinetic solubility: 20 µg/mL
[2]; FeSSIF, 4 hr
  Kinetic solubility: 22 µg/mL
[2]; FeSSIF, 24 hr
  Kinetic solubility: 22 µg/mL
[2]; H2O, 1 hr
  Kinetic solubility: 3.7 µg/mL
[2]; H2O, 4 hr
  Kinetic solubility: 3.9 µg/mL
[2]; H2O, 24 hr
  Kinetic solubility: 2.9 µg/mL
[2]; SGF, 1 hr
  Kinetic solubility: 690 µg/mL
[2]; SGF, 4 hr
  Kinetic solubility: 710 µg/mL
[2]; SGF, 24 hr
  Kinetic solubility: 700 µg/mL

## C=CC(=O)N(C)CCOc1c(N)ncnc1-c1cc(F)cc(NC(=O)c2ccc(C3CC3)cc2F)c1C [Form B, N-(3-(6-amino-5-(2-(N-methylacrylamido)ethoxy)pyrimidin-4-yl)-5-fluoro-2-methylphenyl)-4-cyclopropyl-2-fluorobenzamide]
[4]
  Thermodynamic stability: less thermodynamically stable

## C=CC(=O)N(C)CCOc1c(N)ncnc1-c1cc(F)cc(NC(=O)c2ccc(C3CC3)cc2F)c1C [Form J, N-(3-(6-amino-5-(2-(N-methylacrylamido)ethoxy)pyrimidin-4-yl)-5-fluoro-2-methylphenyl)-4-cyclopropyl-2-fluorobenzamide]
Crystal habit by PLM
  Crystal habit: better crystal habit than Form A
[1]
  Water uptake at 25° C., 80%: 0.53%
  Water uptake at 25° C., 90%: 0.60%
physchem; fassif
  solubility kinetic at 1 h: 24 µg/mL (≈ 47.3 µM)
  solubility kinetic at 4 h: 14 µg/mL (≈ 27.6 µM)
  solubility kinetic at 24 h: 16 µg/mL (≈ 31.5 µM)
physchem; fessif
  solubility kinetic at 1 h: 130 µg/mL (≈ 256 µM)
  solubility kinetic at 4 h: 53 µg/mL (≈ 104 µM)
  solubility kinetic at 24 h: 57 µg/mL (≈ 112 µM)
physchem; simulated gastric fluid
  solubility kinetic at 1 h: 2400 µg/mL (≈ 4730 µM)
  solubility kinetic at 4 h: 2700 µg/mL (≈ 5320 µM)
  solubility kinetic at 24 h: 2600 µg/mL (≈ 5120 µM)
physchem; water
  solubility kinetic at 1 h: 12 µg/mL (≈ 23.6 µM)
  solubility kinetic at 4 h: 15 µg/mL (≈ 29.6 µM)
  solubility kinetic at 24 h: 19 µg/mL (≈ 37.4 µM)
[3]
  Dissolution compared with Form A: larger total dissolution amount and higher cumulative dissolution rate than Form A
[3]; 5 mins
  Cumulative dissolution amount: 1.1 mg
[3]; 10 mins
  Cumulative dissolution amount: 2.5 mg
[3]; 15 mins
  Cumulative dissolution amount: 2.9 mg
[3]; 20 mins
  Cumulative dissolution amount: 3.3 mg
[3]; 25 mins
  Cumulative dissolution amount: 3.9 mg
[3]; 30 mins
  Cumulative dissolution amount: 4.7 mg
[3]; 60 mins
  Cumulative dissolution amount: 5.6 mg
[3]; 75 mins
  Cumulative dissolution amount: 7.2 mg
PSD test
  Particle size distribution: more uniform particle size distribution than Form A
[5]; 25° C./60% RH and 40° C./75% RH for 8 weeks
  Form change and HPLC purity decrease on storage: no obvious form change and HPLC purity decrease
[5]; 25° C./60% RH, 1 week
  Purity/initial Purity: 99.6%
  Purity: 99.09 area %
  Solid form: Form J
[5]; 25° C./60% RH, 2 weeks
  Purity/initial Purity: 99.0%
  Purity: 98.48 area %
  Solid form: Form J
[5]; 25° C./60% RH, 4 weeks
  Purity/initial Purity: 99.2%
  Purity: 98.71 area %
  Solid form: Form J
[5]; 25° C./60% RH, 8 weeks
  Purity/initial Purity: 98.7%
  Purity: 97.94 area %
  Solid form: Form J
[5]; 40° C./75% RH, 1 week
  Purity/initial Purity: 99.6%
  Purity: 99.05 area %
  Solid form: Form J
[5]; 40° C./75% RH, 2 weeks
  Purity/initial Purity: 98.9%
  Purity: 98.39 area %
  Solid form: Form J
[5]; 40° C./75% RH, 4 weeks
  Purity/initial Purity: 99.0%
  Purity: 98.42 area %
  Solid form: Form J
[5]; 40° C./75% RH, 8 weeks
  Purity/initial Purity: 98.0%
  Purity: 97.32 area %
  Solid form: Form J
[6]
  Sticking propensity: lower sticking propensity than Form A
